Each compound was assayed against Histone deacetylase 1 (Homo sapiens, UniProt Q13547) (assay: HDAC1 & HDAC3 Inhibition Assay).
Method: IC50 determination for HDAC1 and HDAC3-Prior to adding reagents, 50 nL/well of compound were added to Proxiplates using an Echo dispenser instrument (Beckman Coulter, CA, US). After addition of compound, 2.5 μL/well of 2× enzyme solution was added and the enzyme was pre-incubated with compound for 3 hours at room temp. (˜22° C.). After the pre-incubation period, the enzyme reaction was initiated by adding 2.5 μL/well of 2× Fluor de Lys substrate solution. The assay reaction was stopped after one hour by adding 5 μl/well of a 0.66× Developer solution containing TSA (3.2 μM). The final product of the enzyme reaction was read using a Spectramax plate reader instrument (Molecular Devices, CA, US) using a fluorescent readout (Ex 360 nm/Em 460 nm). The final enzyme concentrations in the assay buffer for HDAC1 and 3 were 6 and 1.2 nM, respectively. The final Fluor de Lys substrate concentration in the assay buffer was 16 μM for all HDAC enzymes. IC50 values were determined using the following equation:EfreeEo=100(1-11+(1IC50)n)(1)Where Efree and Eo are the free and total amount of HDAC enzyme in the reaction mixture, n is the hill coefficient, I is the free inhibitor concentration, and IC50 is the measure of the potency equivalent to the inhibitor concentration that leads to a 50% occupancy of the total enzyme. Each data was generated in duplicate.

Chain of Histone deacetylase 1 (Q13547 whole entry): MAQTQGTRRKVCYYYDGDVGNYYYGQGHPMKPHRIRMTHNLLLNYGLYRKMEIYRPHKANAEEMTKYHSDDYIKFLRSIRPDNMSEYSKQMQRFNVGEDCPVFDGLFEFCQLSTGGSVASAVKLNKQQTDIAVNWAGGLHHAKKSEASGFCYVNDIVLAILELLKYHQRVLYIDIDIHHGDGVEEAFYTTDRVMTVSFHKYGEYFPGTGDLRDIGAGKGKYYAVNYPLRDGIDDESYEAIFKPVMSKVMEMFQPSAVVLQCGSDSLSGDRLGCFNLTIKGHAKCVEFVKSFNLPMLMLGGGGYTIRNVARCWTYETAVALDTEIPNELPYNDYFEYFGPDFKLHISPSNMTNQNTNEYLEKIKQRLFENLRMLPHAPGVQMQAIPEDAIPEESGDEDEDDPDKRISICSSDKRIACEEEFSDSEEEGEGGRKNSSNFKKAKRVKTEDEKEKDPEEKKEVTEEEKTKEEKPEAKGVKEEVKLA

Compound | IC50 [nM]
Nc1ccc(-c2ccc(F)cc2)cc1NC(=O)c1ccc(S2(=O)=NCCCC2)cc1 (stereo unspecified) [US20250136570, Compound 243] | < 100
N=S(=O)(c1ccc(C(=O)Nc2cc(-c3ccc(F)cc3)ccc2N)cc1)c1ccc(Cl)cn1 (stereo unspecified) [US20250136570, Compound 213] | < 100
Nc1ccc(-c2cccs2)cc1NC(=O)c1ccc(S2(=O)=NCCC2)cc1 (stereo unspecified) [US20250136570, Compound 126] | < 100
Nc1ccc(-c2ccc(F)cc2)cc1NC(=O)c1ccc(S2(=O)=NCCC2)nc1 (stereo unspecified) [US20250136570, Compound 178] | < 100
Nc1ccc(-c2ccc(F)cc2)cc1NC(=O)c1cc2cc(S3(=O)=NCCC3)ccc2s1 (stereo unspecified) [US20250136570, Compound 204] | < 100
Nc1ccc(-c2ccc(F)s2)cc1NC(=O)c1ccc(S2(=O)=NCCC2)cc1 (stereo unspecified) [US20250136570, Compound 160] | < 100
